Source: patent US12564636B2, “Pnictogen-containing heterocyclic compounds and their use” (University of Rhode Island Board of Trustees, priority 2022, dated 2026)

Assays:
Format in all cases: physicochemical
[1] = Second order reaction rate constant of CAP compound with GSH (UV-Vis kinetics)
Description: (§1) In a typical experiment, an aliquot of the stock solution of CAP1-a in water was added to nucleophile in PIPES buffer or water. The progress of the reaction was monitored by UV-Vis spectrometer at suitable wavelength. The pseudo first order reaction rate constant was determined by plotting the ln value of the concentration of CAP1-a against the reaction time. The pseudo first order reaction rate constant thus obtained was plotted against the concentration of the nucleophile. The slope of this linear correlation is the second order reaction rate constant. CAP1-a was reacted separately with GSH, cysteine, N-acetylcysteine, and phenol.
Following the study above, compounds CAP1-F, CAP2, and CAP4 each were reacted with either GSH or phenol in water or 50 mM PIPES at pH 7.
In another study, compounds CAP1-b, CAP1-F, CAP2, CAP3, CAP4, and CAP5 each were reacted with either GSH in a 50 mM PIPES and 150 mM KCl aqueous solution at pH 7 and 25° C. […] The reaction between CAP5 and GSH has a k2 as high as 3.2×10^5 M^−1·S^−1, 7×10^9 folds faster than its reaction with water under the same conditions. […] S^−1.

[2] = Reaction of CAP compound with water (hydrolysis rate, stability in water)
Description: as §1
On the other hand, the reaction between CAP4 and water is very slow, showing a k2 of only 4.8−10^−6 M^−1·S^−1 at 25° C. and pH 7 in 50 mM PIPES.

[3] = Second order reaction rate constant of CAP compound with cysteine (UV-Vis kinetics); details: similar reaction conditions (25° C., pH 7, 50 mM PIPES)
Description: as §1

[4] = Stability in D2O observed by 1H NMR; details: r.t.
Source text: 1H NMR (400 MHz, D2O) δ 8.08−7.98 (m, 2H), δ 7.92−7.85 (m, 2H), 4.41 (s, 6H), 3.75 (s, 3H).

[5] = 50 mM PIPES and 150 mM KCl aqueous solution, pH 7, 25° C.

| Compound | second order reaction rate constant (k2), reaction with GSH [1, 5] | second order reaction rate constant (k2), reaction with GSH ([1]; 25° C., pH 7, 50 mM PIPES) | further results |
| --- | --- | --- | --- |
| C[n+]1ccccc1F [CAP1-b, N-methyl-2-fluoropyridinium tetrafluoroborate] | 1.2×10^2 M^−1·S^−1 | – | – |
| C[n+]1ccccc1F.[I-] [CAP1-a, N-methyl-2-fluoropyridinium iodide] | – | 1.2×10^2 M^−1·S^−1 | second order reaction rate constant (k2), reaction with water ([2]; CAP1-a and water): 4.5×10^−6 M^−1 S^−1; stability in water (in words) ([2]; inferred from slow reaction with water): high stability; second order reaction rate constant (k2), reaction with cysteine [3]: 2.8×10^2 M^−1·S^−1 |
| Cn1c(S(C)(=O)=O)[n+](C)c2ccccc21 [CAP23, 1,3-dimethyl-2-(methylsulfonyl)-1H-benzo[d]imidazol-3-ium tetrafluoroborate] | – | – | stability in D2O [4]: moderate stability; time after which the compound is completely hydrolyzed in D2O [4]: 12 h |
| C[n+]1ccc(S(C)(=O)=O)cc1 [CAP3, N-Methyl-4-(methylsulfonyl)pyridinium tetrafluoroborate] | 9.8×10^3 M^−1·S^−1 | – | – |
| C[n+]1c(Cl)cccc1S(C)(=O)=O [CAP5, 2-Chloro-1-methyl-6-(methylsulfonyl)pyridin-1-ium tetrafluoroborate] | 3.2×10^5 M^−1·S^−1 | – | – |
| C[n+]1ccccc1S(C)(=O)=O [CAP4, N-methyl-2-(methylsulfonyl)pyridinium tetrafluoroborate] | 1.2×10^5 M^−1·S^−1 | 5.3×10^4 M^−1·S^−1 | – |
